Counter-ions that a name gives are not always drawn.
How the values were obtained:
Format in all cases: physicochemical
[1] = Compatibility test of Atorvastatin alone and Atorvastatin with Attapulgite at 40° C./75% RH (impurities)
[2] = Stability of unpacked tablets at 40° C.±2° C. and 75%±5% RH (impurities); details: 40°/75 RH
Experimental: (§1) One of the main objects of the present invention was to prepare a product with acceptable stability. For this reason 3 batches of each composition were exposed to normal, intermediate and accelerated stability studies according to the current ICH guidelines.
The tablets of the above compositions were exposed at a temperature of 40° C.±2° C. and relative humidity of 75%±5% without being packed in any type of container or blister. The tablets were tested in predetermined time intervals. The results for each composition are described in the stability table (TABLE 1).

[3] = Stability after preparation and after 3 months in HDPE containers, normal and intermediate conditions (impurities); details: for Atorvastatin Amide / Desfluoro: limit NMT 0.3%; for Atorvastatin Diepoxide: limit NMT 0.6%; for Diketo1,2-Diol + Diketoepoxide: limit NMT 1.20%; for Lactone: limit NMT 2%; for Total: total impurities; for Unknown: unknown impurity
Experimental: as §1
Subsequently, the tablets of compositions 2 were packed into white opaque, HDPE plastic […] C.±2° C. and relative humidity of 65%±5% for intermediate conditions. The results for composition 2 and of the active ingredient directly after preparation and after 3 months stability are described in the stability table below (TABLE 3).

CC(C)c1c(C(=O)Nc2ccccc2)c(-c2ccccc2)c(-c2ccc(F)cc2)n1CC[C@@H](O)C[C@@H](O)CC(=O)O (relative stereo) [Atorvastatin, [R—(R*,R*)]-2-(4-fluorophenyl)-b,d-dihydroxy-5-(1-methylethyl)-3-phenyl-4[(phenylamino)carbonyl]-1H -pyrrole-1-heptanoic acid, calcium salt (2:1) trihydrate]
Diketo1,2-Diol + Diketoepoxide ([1]; limit 1.20%): 0.39%
Atorvastatin Amide ([1]; limit NMT 0.3%): 0.05%
Desfluoro ([1]; limit NMT 0.3%): 0.07%
Methyl Ester ([1]; limit NMT 0.3%): 0.01%
Atorvastatin Diepoxide ([1]; limit NMT 0.6%): 0.20%
Lactone ([1]; limit NMT 2%): 0.34%
Total ([1]; total impurities): 1.29%
Atorvastatin Amide [2]: 0.07%
Atorvastatin Diepoxide [2]: 0.34%
Desfluoro [2]: 0.08%
Diketo1,2-Diol + Diketoepoxide [2]: 0.69%
Lactone [2]: 0.45%
Total ([2]; total impurities): 1.87%
Atorvastatin Amide ([3]; 0 months): 0.06%
Desfluoro ([3]; 0 months): 0.06%
Atorvastatin Diepoxide ([3]; 0 months): 0.25%
Diketo1,2-Diol + Diketoepoxide ([3]; 0 months): 0.84%
Lactone ([3]; 0 months): 0.07%
Total ([3]; 0 months): 1.69%
Unknown ([3]; 0 months): 0.34%
Atorvastatin Amide ([3]; 3 months 25° C./60% RH): 0.06%
Desfluoro ([3]; 3 months 25° C./60% RH): 0.03%
Atorvastatin Diepoxide ([3]; 3 months 25° C./60% RH): 0.30%
Diketo1,2-Diol + Diketoepoxide ([3]; 3 months 25° C./60% RH): 0.92%
Lactone ([3]; 3 months 25° C./60% RH): 0.05%
Total ([3]; 3 months 25° C./60% RH): 1.96%
Unknown ([3]; 3 months 25° C./60% RH): 0.38%
Atorvastatin Amide ([3]; 3 months 30° C./65% RH): 0.06%
Desfluoro ([3]; 3 months 30° C./65% RH): 0.03%
Atorvastatin Diepoxide ([3]; 3 months 30° C./65% RH): 0.38%
Diketo1,2-Diol + Diketoepoxide ([3]; 3 months 30° C./65% RH): 1.10%
Lactone ([3]; 3 months 30° C./65% RH): 0.05%
Total ([3]; 3 months 30° C./65% RH): 2.12%
Unknown ([3]; 3 months 30° C./65% RH): 0.4%
